One experiment concerns the target human H-PGDS (Homo sapiens (Human), UniProt O60760). In words: Hematopoietic prostaglandin D synthase (H-PGDS) inhibiting action. The experiment is classed as biochemical. Conditions: for Inhibition Rate (%) 0.1 μM / inhibition at 0.1 µM: compound at 0.1 μM, relative to the control group, human H-PGDS, [14C] prostaglandin H2 10 μM; for IC50: inhibition concentration at 50% relative to H-PGDS, read-out: IC50; for inhibition at 0.1 µM: read-out: Inhibition Rate (%) 0.1 μM. The method, then: The test was carried out according to the method of Urade, Y. et al. (J. Biol. Chem., 262, 3820-3825, (1987)). More specifically, the reaction mixture (49 μL) containing 100 mM Tris-HCl (pH 8.0), 1 mM reduced glutathione, 0.1 mg/mL γ-globulin, and human H-PGDS (q.s.), and a compound (final concentration: 0.01-100 μM) was preincubated at 25° C. for 5 minutes. A DMSO solution (final concentration: 1%) was added to the solvent control group. Subsequently, 1 μL of [^14C] prostaglandin H2 (final concentration: 10 μM) was added to start the reaction. One minute after the start of the reaction, 250 μL of a reaction stop solution (diethylether/methanol/1 M citric acid (30/4/1) at a temperature of −20° C. was added to stop the reaction. After the reaction was stopped, 50 μL of the upper-layer portion (organic solvent layer) was applied to a TLC plate and developed at −20° C. for 45 minutes (developing solvent: diethylether/methanol/acetic acid (90/2/1)). After drying the TLC plate, the TLC plate was exposed to an imaging plate for 1 to 24 hours, and the radioactivity corresponding to prostaglandin D2 (PGD2) was analyzed using an image analyzer (produced by Fujifilm Corporation). […]

The subject of experiment [1] is PGD2 production in the nasal cavities of guinea pigs with antigen-induced rhinitis. Kind of experiment: PGD2 production inhibiting action in the nasal cavities of guinea pigs with antigen-induced rhinitis. The experiment is classed as in vivo. Conditions: 30 mg/kg orally 1 hour before induction of rhinitis reaction; washing 30 minutes after induction; * = significance level below 0.05 vs control group. The method, then:
A physiological saline solution containing 1 mg/mL of ovalbumin was subcutaneously injected into the back of 5-week-old male Std: Hartley guinea pigs in an amount of 1 mL/body for active sensitization (initial sensitization). One week and two weeks after initial sensitization, 20 μL of a physiological saline solution containing 10 mg/mL of ovalbumin was instilled into each nasal cavity using a micropipette (sensitization by nasal administration). Three weeks after initial sensitization, 20 μL of a physiological saline solution containing 10 mg/mL of ovalbumin was instilled into each nasal cavity using a micropipette to induce a rhinitis reaction.
30 minutes after the induction of a rhinitis reaction, the nasal cavities were washed under pentobarbital sodium anesthesia. A nasal cavity washing liquid (phosphate buffered saline containing 3 mM of EDTA and 10 μM of indomethacin) was flushed using a Peristaltic Pump (Gilson, Inc.) in the direction from the trachea to the upper respiratory tract at a flow rate of 1 mL/min, and the liquid flowing out from the nasal cavities was collected for 1 minute. The collected liquid was centrifuged to separate the supernatant as the nasal cavity washing fluid. The concentration of PGD2 in the nasal cavity washing fluid was determined using an EIA kit (Prostaglandin D2-MOX EIA kit, Cayman Chemical).
The test compound (30 mg/kg) was orally administered 1 hour before induction of a rhinitis reaction. A formula to calculate the rate of decrease in PGD2 in the nasal cavity washing fluid is shown below. Rate (%) of decrease in PGD2 in the nasal cavity washing fluid={(PGD2 concentration in the control group−PGD2 concentration in the compound-administered group)÷(PGD2 concentration in the control group−PGD2 concentration in the normal group)}×100
8 or more cases were obtained from each group to determine whether expression of the PGD2 production inhibiting action occurred, and the PGD2 concentration in the nasal cavity washing fluid was compared between the control group and each compound-administered group. […] When the significance level was below 0.05, the action was considered to be present and indicated by a symbol (*) in the table. Reference Example 18, known as an H-PGDS inhibitor, was used as a positive control substance.

Chain of human H-PGDS (O60760 whole entry): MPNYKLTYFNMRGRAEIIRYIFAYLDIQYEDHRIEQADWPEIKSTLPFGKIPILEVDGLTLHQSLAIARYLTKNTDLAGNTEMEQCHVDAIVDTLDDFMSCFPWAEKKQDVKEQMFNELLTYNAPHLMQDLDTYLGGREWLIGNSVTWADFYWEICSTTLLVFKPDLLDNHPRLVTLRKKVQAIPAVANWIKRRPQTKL

As usually defined, the IC50 is the concentration that inhibits the measured activity by half. Regarding “4-(4-(4-((1-methylpyrrol-2-yl)-carbonyl)-1-piperazinecarbamoyl)piperidin-1-yl)-benzoic acid [Compound 1]”, on human H-PGDS, the “Inhibition Rate (%) 0.1 μM” value is 57.7% and the IC50 came out at 67 nM.

As usually defined, the inhibition is the percentage by which the read-out fell short of the control. As for `Cn1cccc1C(=O)N1CCN(C(=O)NC2CCN(c3ccc(C(=O)NCc4cccnc4)cc3)CC2)CC1` [Compound 2, 4-((1-methylpyrrol-2-yl)-carbonyl)-N-(1-(4-(pyridin-3-ylmethylcarbamoyl)phenyl)-piperidin-4-yl)-1-piperazinecarboxamide], the inhibition at 0.1 µM on human H-PGDS came to 55.2%.

As to `Cn1cccc1C(=O)N1CCN(C(=O)NC2CCN(c3ccc(C(=O)NCCN4CCOCC4)cc3)CC2)CC1` [Compound 3, 4-((1-methylpyrrol-2-yl)-carbonyl)-N-(1-(4-(2-morpholinoethylcarbamoyl)-phenyl)-piperidin-4-yl)-1-piperazinecarboxamide], at human H-PGDS, the inhibition at 0.1 µM was determined as 69.1% and the IC50 is 27 nM.

`Cn1cccc1C(=O)N1CCN(C(=O)NC2CCN(c3ccc(C(=O)N4CCOCC4)cc3)CC2)CC1` [Compound 4, 4-((1-methylpyrrol-2-yl)-carbonyl)-N-(1-(4-(4-morpholinylcarbonyl)phenyl)-piperidin-4-yl)-1-piperazinecarboxamide]: on human H-PGDS, the inhibition at 0.1 µM came out at 69.8% and the IC50 worked out at 31 nM.

With `Cn1cccc1C(=O)N1CCN(C(=O)NC2CCN(c3ccc(C(=O)N4CCCCC4)cc3)CC2)CC1` [Compound 5, 4-((1-methylpyrrol-2-yl)-carbonyl)-N-(1-(4-(1-piperidinylcarbonyl)phenyl)-piperidin-4-yl)-1-piperazinecarboxamide], in experiment [1], the “Rate (%) of decrease in PGD2 in the nasal cavity washing fluid” value (from here on “Rate (%) of decrease in PGD2”) is reported as 88.0* %. At human H-PGDS, the inhibition at 0.1 µM was found to be 67.6% and the IC50 is 41 nM.

`Cn1cccc1C(=O)N1CCN(C(=O)NC2CCN(c3ccc(C(=O)N4CCCC4)cc3)CC2)CC1` [Compound 6, 4-((1-methylpyrrol-2-yl)-carbonyl)-N-(1-(4-(1-pyrrolidinylcarbonyl)phenyl)-piperidin-4-yl)-1-piperazinecarboxamide]: at human H-PGDS, the inhibition at 0.1 µM was 63% and the IC50 was 52 nM.

With `Cn1cccc1C(=O)N1CCN(C(=O)NC2CCN(c3ccc(CCn4ccnn4)cc3)CC2)CC1` [Compound 7, 4-((1-methylpyrrol-2-yl)-carbonyl)-N-(1-(4-(2-(1,2,3-triazol-1-yl)-ethyl)-phenyl)-piperidin-4-yl)-1-piperazinecarboxamide], at human H-PGDS, the inhibition at 0.1 µM turned out to be 75% and the IC50 was 15 nM.

For `Cn1cccc1C(=O)N1CCN(C(=O)NC2CCN(c3ccc(CCCn4cncn4)cc3)CC2)CC1` [Compound 8, 4-((1-methylpyrrol-2-yl)-carbonyl)-N-(1-(4-(3-(1,2,4-triazol-1-yl)-propyl)-phenyl)-piperidin-4-yl)-1-piperazinecarboxamide], the inhibition at 0.1 µM at human H-PGDS amounted to 60.6%.

In the case of `Cc1nc(C)n(CCCc2ccc(N3CCC(NC(=O)N4CCN(C(=O)c5cccn5C)CC4)CC3)cc2)n1` [Compound 9, 4-((1-methylpyrrol-2-yl)-carbonyl)-N-(1-(4-(3-(3,5-dimethyl-1,2,4-triazol-1-yl)-propyl)-phenyl)-piperidin-4-yl)-1-piperazinecarboxamide], on human H-PGDS, the inhibition at 0.1 µM came to 54.2% and the IC50 came to 61 nM.

As for `Cn1cccc1C(=O)N1CCN(C(=O)NC2CCN(c3ccc(CCCn4ccnn4)cc3)CC2)CC1` [Compound 10, 4-((1-methylpyrrol-2-yl)-carbonyl)-N-(1-(4-(3-(1,2,3-triazol-1-yl)-propyl)-phenyl)-piperidin-4-yl)-1-piperazinecarboxamide], on human H-PGDS, the inhibition at 0.1 µM was 74.8% and the IC50 was 27 nM.

For the molecule `Cn1cccc1C(=O)N1CCN(C(=O)NC2CCN(c3ccc(C=CC(=O)N4CCOCC4)cc3)CC2)CC1` [Compound 11, 4-((1-methylpyrrol-2-yl)-carbonyl)-N-(1-(4-(3-morpholino-3-oxopropen-1-yl)-phenyl)-piperidin-4-yl)-1-piperazinecarboxamide], the inhibition at 0.1 µM at human H-PGDS was found to be 66.7%.

In the case of `Cn1cccc1C(=O)N1CCN(C(=O)NC2CCN(c3ccc(CCC(=O)N4CCOCC4)cc3)CC2)CC1` [Compound 12, 4-((1-methylpyrrol-2-yl)-carbonyl)-N-(1-(4-(3-morpholino-3-oxopropyl)-phenyl)-piperidin-4-yl)-1-piperazinecarboxamide], at human H-PGDS, the inhibition at 0.1 µM was 53.6%.

In the case of `Cn1cccc1C(=O)N1CCN(C(=O)C2CCN(c3ccc(C(=O)O)cn3)CC2)CC1` [Compound 13, 6-(4-(4-((1-methylpyrrol-2-yl)-carbonyl)-1-piperazinecarbamoyl)-piperidin-1-yl)-nicotinic acid], on human H-PGDS, the “Inhibition Rate (%) 0.1 μM” value is recorded as 52.8%.

`Cn1cccc1C(=O)N1CCN(C(=O)NC2CCN(c3ccc(C(=O)N4CCOCC4)cn3)CC2)CC1` [Compound 14, 4-((1-methylpyrrol-2-yl)-carbonyl)-N-(1-(5-(4-morpholinylcarbonyl)pyridin-2-yl)-piperidin-4-yl)-1-piperazinecarboxamide]: at human H-PGDS, the inhibition at 0.1 µM was 57.2%.

For `CCn1cccc1C(=O)N1CCN(C(=O)NC2CCN(c3ccc(C(=O)NCCN4CCOCC4)cc3)CC2)CC1` [Compound 15, 4-((1-ethylpyrrol-2-yl)-carbonyl)-N-(1-(4-(2-morpholinoethylcarbamoyl)phenyl)-piperidin-4-yl)-1-piperazinecarboxamide], at human H-PGDS, the inhibition at 0.1 µM came out at 69.9% and the IC50 was 39 nM.

`CCn1cccc1C(=O)N1CCN(C(=O)NC2CCN(c3ccc(CCn4ccnn4)cc3)CC2)CC1` [Compound 16, 4-((1-ethylpyrrol-2-yl)-carbonyl)-N-(1-(4-(2-(1,2,3-triazol-1-yl)-ethyl)-phenyl)-piperidin-4-yl)-1-piperazinecarboxamide]: the inhibition at 0.1 µM on human H-PGDS came to 68.4%.

Turning to `O=C(NCCN1CCOCC1)c1ccc(N2CCC(NC(=O)N3CCN(C(=O)c4cccs4)CC3)CC2)cc1` [Reference Example 4, 4-((thiophen-2-yl)-carbonyl)-N-(1-(4-(2-morpholinoethylcarbamoyl)-phenyl)-piperidin-4-yl)-1-piperazinecarboxamide, reference compound], the inhibition at 0.1 µM on human H-PGDS is 29.2%.

In the case of `O=C(NCCN1CCOCC1)c1ccc(N2CCC(NC(=O)N3CCN(C(=O)c4ccccc4)CC3)CC2)cc1` [Reference Example 11, 4-benzoyl-N-(1-(4-(2-morpholinoethylcarbamoyl)-phenyl)-piperidin-4-yl)-1-piperazinecarboxamide, reference compound], at human H-PGDS, the inhibition at 0.1 µM stood at 30%.

On to `O=C(Nc1nc2ccc(Br)cc2s1)N1CCN(C(=O)c2cccc(F)c2)CC1` [Reference Example 12, 4-(3-fluorobenzoyl)-piperazine-1-carboxylic acid-(6-bromobenzothiazol-2-yl)-amide, reference compound], for which, in experiment [1], the “Rate (%) of decrease in PGD2” value is listed as 7.9%. Besides, the inhibition at 0.1 µM on human H-PGDS is 45.1%.

With `Cc1cc2nc(NC(=O)N3CCN(C(=O)c4cccc(F)c4)CC3)sc2cc1C` [Reference Example 13, 4-(3-fluorobenzoyl)-piperazine-1-carboxylic acid-(5,6-dimethylbenzothiazol-2-yl)-amide, reference compound], the “Rate (%) of decrease in PGD2” value in experiment [1] was found to be 3.9%. The inhibition at 0.1 µM on human H-PGDS amounted to 31.6%.

Regarding `CON(C)C(=O)c1[nH]c(C)c(-c2nc3ccc(C(=O)c4ccccc4)cc3[nH]2)c1C` [Reference Example 18], the “Rate (%) of decrease in PGD2” value in experiment [1] is 77.0* %.

The values are drawn from patent publication US8765750B2, “Piperazine compound having a PGDS inhibitory effect” (Taiho Pharmaceutical Co., Ltd., priority 2010, dated 2014).
